Assay results published in patent US10335409B2 (priority 2012, dated 2019).
Like-named read-outs stand apart in the source and are kept apart here.

How the values were obtained:
Type in all cases: cell-based, hepatitis C virus
[1] = test system: genotype 1a (H77) stable HCV replicon in Huh-7-derived cells; experiment: Stable subgenomic HCV replicon EC50, genotype 1a (Renilla luciferase); conditions: Hepatitis C virus, stable replicon genotype 1a, 72 h, read-out: EC50 1A RLUC
Method in brief: (§1)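 Compounds, three-fold diluted, were applied to Huh-7-derived cells harbouring luciferase replicons (genotype 1a H77, 1b Con1, 2a JFH-1, 4a ED43, with strain-specific adaptive mutations). Seventy-two hours later, intracellular replication was gauged by Renilla luciferase activity and EC50 derived by regression.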

[2] = test system: genotype 1b NS3/4a protease inhibitor resistant variant D168A transient HCV replicon in Huh-7-derived cells; experiment: Transient-transfected HCV replicon EC50, genotype 1b D168A; conditions: Hepatitis C virus, 72 h, read-out: EC50 1B D168A, transient-transfected replicon genotype 1b D168A resistant variant, 72 h
[3] = test system: genotype 1b (Con1) wild type transient HCV replicon in Huh-7-derived cells; experiment: Transient-transfected HCV replicon EC50, genotype 1b wild type; conditions: Hepatitis C virus, 72 h, read-out: EC50 1B WT
[4] = test system: genotype 2a (JFH-1) stable HCV replicon in Huh-7-derived cells; experiment: Stable subgenomic HCV replicon EC50, genotype 2a (Renilla luciferase); conditions: Hepatitis C virus, stable replicon genotype 2a, 72 h, read-out: EC50 2A RLUC
Method in brief: as §1

[5] = test system: genotype 3a (S52) stable HCV replicon in Huh-7-derived cells; experiment: Stable subgenomic HCV replicon EC50, genotype 3a (Renilla luciferase); conditions: Hepatitis C virus, 72 h, read-out: EC50 3A RLUC
[6] = test system: genotype 1a (H77) wild type transient HCV replicon in Huh-7-derived cells; experiment: Transient-transfected HCV replicon EC50, genotype 1a wild type; conditions: Hepatitis C virus, 72 h, read-out: EC50 1A WT
[7] = test system: genotype 1a NS3/4a protease inhibitor resistant variant R155K transient HCV replicon in Huh-7-derived cells; experiment: Transient-transfected HCV replicon EC50, genotype 1a R155K; conditions: Hepatitis C virus, 72 h, read-out: EC50 1A R155K, transient-transfected replicon genotype 1a R155K resistant variant, 72 h
[8] = test system: genotype 1b (Con1) stable HCV replicon in Huh-7-derived cells; experiment: Stable subgenomic HCV replicon EC50, genotype 1b (Renilla luciferase); conditions: Hepatitis C virus, stable replicon genotype 1b, 72 h, read-out: EC50 1B RLUC
Method in brief: as §1

[9] = test system: genotype 4a (ED43) stable HCV replicon in Huh-7-derived cells; experiment: Stable subgenomic HCV replicon EC50, genotype 4a (Renilla luciferase); conditions: Hepatitis C virus, 72 h, read-out: EC50 4A RLUC
Method in brief: as §1

[10] = test system: genotype 3a (S52) wild type transient HCV replicon in Huh-7-derived cells; experiment: Transient-transfected HCV replicon EC50, genotype 3a wild type; conditions: Hepatitis C virus, 72 h, read-out: EC50 3A WT
[11] = transient-transfected replicon genotype 1b wild type
[12] = transient-transfected replicon genotype 1a wild type
[13] = transient-transfected replicon genotype 3a wild type

COc1ccc2nc3c(nc2c1)O[C@H]1CN(C(=O)[C@H](C(C)(C)C)NC(=O)O[C@@H]2C[C@@H]4C[C@@H]4[C@H]2CCCCC3)[C@H](C(=O)N[C@]2(C(=O)NS(=O)(=O)C3(C)CC3)C[C@H]2C(F)F)[C@@H]1C [Example 49, (1aS,2aR,6S,9S,10S,11R,23aR,23bS)-6-tert-butyl-N-[(1R,2R)-2-(difluoromethyl)-1-{[(1-methylcyclopropyl)sulfonyl]carbamoyl}cyclopropyl]-15-methoxy-10-methyl-4,7-dioxo-1a,2,2a,4,5,6,7,10,11,19,20,21,22,23,23a,23b-hexadecahydro-1H,9H-8,11-methanocyclopropa[4′,5′]cyclopenta[1′,2′:18,19][1,10,3,6]dioxadiazacyclononadecino[11,12-b]quinoxaline-9-carboxamide]
EC50 [1]: 3.7 nM
EC50 [2]: 4.2 nM
EC50 [3]: 2.8 nM
EC50 [4]: 5.2 nM
EC50 [5]: 20 nM
EC50 [6]: 3.5 nM
EC50 [7]: 3.8 nM
EC50 [8]: 4.1 nM
EC50 [9]: 3.5 nM
EC50 [10]: 6.3 nM

COc1ccc2nc3c(nc2c1)O[C@H]1CN(C(=O)[C@H](C(C)(C)C)NC(=O)O[C@@H]2C[C@H]2CCCCC3)[C@H](C(=O)N[C@]2(C(=O)NS(=O)(=O)C3(C)CC3)C[C@H]2C(F)F)[C@@H]1CC#N [Example 50, (1aR,5S,8S,9S,10R,22aR)-5-tert-butyl-9-(cyanomethyl)-N-[(1R,2R)-2-(difluoromethyl)-1-{[(1-methylcyclopropyl)sulfonyl]carbamoyl}cyclopropyl]-14-methoxy-3,6-dioxo-1,1a,3,4,5,6,9,10,18,19,20,21,22,22a-tetradecahydro-8H-7,10-methanocyclopropa[18,19][1,10,3,6]dioxadiazacyclononadecino[11,12-b]quinoxaline-8-carboxamide]
EC50 [1]: 4440 nM
EC50 [2]: 4440 nM
EC50 [3, 11]: 4440 nM
EC50 [4]: 379 nM
EC50 [5]: 19700 nM
EC50 [6, 12]: 4440 nM
EC50 [7]: 3830 nM
EC50 [8]: 4440 nM
EC50 [9]: 4440 nM
EC50 [10, 13]: 26800 nM

CC[C@@H]1[C@@H]2CN(C(=O)[C@H](C(C)(C)C)NC(=O)O[C@]3(C)CCC[C@H]3CCCCCc3nc4ccc(OC)cc4nc3O2)[C@@H]1C(=O)N[C@]1(C(=O)NS(=O)(=O)C2CC2)C[C@H]1CC [Example 51]
EC50 [1]: 40 nM
EC50 ([2]; GETYPE1B): 318 nM
EC50 ([3]; GETYPE1B, transient-transfected replicon genotype 1b wild type): 24 nM
EC50 [4]: 103 nM
EC50 [5]: 1220 nM
EC50 ([6]; GETYPE1A, transient-transfected replicon genotype 1a wild type): 28 nM
EC50 ([7]; GETYPE1A): 92 nM
EC50 [8]: 39 nM
EC50 [9]: 30 nM
EC50 [10, 13]: 265 nM

CC[C@@H]1[C@@H]2CN(C(=O)[C@H](C(C)(C)C)NC(=O)O[C@]3(C)CCC[C@H]3CCCCCc3nc4ccc(OC)cc4nc3O2)[C@@H]1C(=O)N[C@]1(C(=O)NS(=O)(=O)C2(C)CC2)C[C@H]1CCF [Example 52, (3aR,7S,10S,11S,12R,24aR)-7-tert-butyl-11-ethyl-N-[(1R,2S)-2-(2-fluoroethyl)-1-{[(1-methylcyclopropyl)sulfonyl]carbamoyl}cyclopropyl]-16-methoxy-3a-methyl-5,8-dioxo-1,2,3,3a,5,6,7,8,11,12,20,21,22,23,24,24a-hexadecahydro-10H-9,12-methanocyclopenta[18,19][1,10,3,6]dioxadiazacyclononadecino[11,12-b]quinoxaline-10-carboxamide]
EC50 [1]: 195 nM
EC50 [2]: 887 nM
EC50 [3, 11]: 161 nM
EC50 [4]: 380 nM
EC50 [5]: 2310 nM
EC50 [6, 12]: 150 nM
EC50 [7]: 516 nM
EC50 [8]: 245 nM
EC50 [9]: 161 nM
EC50 [10, 13]: 538 nM

CC[C@@H]1[C@@H]2CN(C(=O)[C@H](C(C)(C)C)NC(=O)O[C@@H]3C[C@H]3CCCCC(F)(F)c3nc4ccccc4nc3O2)[C@@H]1C(=O)N[C@]1(C(=O)NS(=O)(=O)C2CC2)C[C@H]1C(F)F [Example 53, (1aR,5S,8S,9S,10R,22aR)-5-tert-butyl-N-[(1R,2R)-1-[(cyclopropylsulfonyl)carbamoyl]-2-(difluoromethyl)cyclopropyl]-9-ethyl-18,18-difluoro-3,6-dioxo-1,1a,3,4,5,6,9,10,18,19,20,21,22,22a-tetradecahydro-8H-7,10-methanocyclopropa[18,19][1,10,3,6]dioxadiazacyclononadecino[11,12-b]quinoxaline-8-carboxamide]
EC50 [1]: 51 nM
EC50 [2]: 11 nM
EC50 [3, 11]: 2 nM
EC50 [4]: 13 nM
EC50 [5]: 18 nM
EC50 [6, 12]: 5.3 nM
EC50 [7]: 5.6 nM
EC50 [8]: 7.7 nM
EC50 [9]: 2.8 nM
EC50 [10, 13]: 15 nM

CC[C@@H]1[C@@H]2CN(C(=O)[C@H](C(C)(C)C)NC(=O)O[C@@H]3C[C@H]3CCCCC(F)(F)c3nc4ccccc4nc3O2)[C@@H]1C(=O)N[C@]1(C(=O)NS(=O)(=O)C2CC2)C[C@H]1CC [Example 54, (1aR,5S,8S,9S,10R,22aR)-5-tert-butyl-N-{(1R,2R)-1-[(cyclopropylsulfonyl)carbamoyl]-2-ethylcyclopropyl}-9-ethyl-18,18-difluoro-3,6-dioxo-1,1a,3,4,5,6,9,10,18,19,20,21,22,22a-tetradecahydro-8H-7,10-methanocyclopropa[18,19][1,10,3,6]dioxadiazacyclononadecino[11,12-b]quinoxaline-8-carboxamide]
EC50 [1]: 33 nM
EC50 [2]: 123 nM
EC50 [3, 11]: 10 nM
EC50 [4]: 76 nM
EC50 [5]: 260 nM
EC50 [6, 12]: 19 nM
EC50 [7]: 27 nM
EC50 [8]: 18 nM
EC50 [9]: 13 nM
EC50 [10, 13]: 147 nM

CC[C@@H]1[C@@H]2CN(C(=O)[C@H](C(C)(C)C)NC(=O)O[C@]3(C)CCC[C@H]3CCCCCc3nc4ccc(OC)cc4nc3O2)[C@@H]1C(=O)N[C@]1(C(=O)NS(=O)(=O)C2(C)CC2)C[C@H]1CC [Example 56, (3aR,7S,10S,11S,12R,24aR)-7-tert-butyl-11-ethyl-N-[(1R,2R)-2-ethyl-1-{[(1-methylcyclopropyl)sulfonyl]carbamoyl}cyclopropyl]-16-methoxy-3a-methyl-5,8-dioxo-1,2,3,3a,5,6,7,8,11,12,20,21,22,23,24,24a-hexadecahydro-10H-9,12-methanocyclopenta[18,19][1,10,3,6]dioxadiazacyclononadecino[11,12-b]quinoxaline-10-carboxamide]
EC50 [1]: 41 nM
EC50 [2]: 252 nM
EC50 [3, 11]: 59 nM
EC50 [4]: 57 nM
EC50 [5]: 1030 nM
EC50 [6, 12]: 63 nM
EC50 [7]: 168 nM
EC50 [8]: 37 nM
EC50 [9]: 57 nM
EC50 [10, 13]: 226 nM

COc1ccc2nc3c(nc2c1)O[C@H]1CN(C(=O)[C@H](C(C)(C)C)NC(=O)O[C@@H]2C[C@@H]4C[C@@H]4[C@H]2CCCCC3)[C@H](C(=O)N[C@]2(C(=O)NS(=O)(=O)C3CC3)C[C@H]2CC(F)F)[C@@H]1C [Example 57, (1aS,2aR,6S,9S,10S,11R,23aR,23bS)-6-tert-butyl-N-[(1R,2S)-1-[(cyclopropylsulfonyl)carbamoyl]-2-(2,2-difluoroethyl)cyclopropyl]-15-methoxy-10-methyl-4,7-dioxo-1a,2,2a,4,5,6,7,10,11,19,20,21,22,23,23a,23b-hexadecahydro-1H,9H-8,11-methanocyclopropa[4′,5′]cyclopenta[1′,2′:18,19][1,10,3,6]dioxadiazacyclononadecino[11,12-b]quinoxaline-9-carboxamide]
EC50 [1]: 12 nM
EC50 [2]: 48 nM
EC50 [3]: 7.5 nM
EC50 [4]: 21 nM
EC50 [5]: 166 nM
EC50 [6]: 12 nM
EC50 [7]: 17 nM
EC50 [8]: 11 nM
EC50 [9]: 4.9 nM
EC50 [10]: 54 nM
